Assay results taken from patent US6683181B2, “Pyrroloquinolones as antiviral agents” (Pharmacia and Upjohn Comapny, priority 2000, dated 2004).

Experiments:
CMV Polymerase = target: T1, CMV Polymerase (Human cytomegalovirus, UniProt P08546); experiment: HCMV polymerase scintillation proximity assay (modified version); assay type: biochemical; conditions: modified SPA assay; compounds diluted in 100% DMSO; 4.5 mM DTT
T1 construct: made in house; host or cells: recombinant baculovirus-infected SF-9 cells
T1 sequence (P08546 whole entry): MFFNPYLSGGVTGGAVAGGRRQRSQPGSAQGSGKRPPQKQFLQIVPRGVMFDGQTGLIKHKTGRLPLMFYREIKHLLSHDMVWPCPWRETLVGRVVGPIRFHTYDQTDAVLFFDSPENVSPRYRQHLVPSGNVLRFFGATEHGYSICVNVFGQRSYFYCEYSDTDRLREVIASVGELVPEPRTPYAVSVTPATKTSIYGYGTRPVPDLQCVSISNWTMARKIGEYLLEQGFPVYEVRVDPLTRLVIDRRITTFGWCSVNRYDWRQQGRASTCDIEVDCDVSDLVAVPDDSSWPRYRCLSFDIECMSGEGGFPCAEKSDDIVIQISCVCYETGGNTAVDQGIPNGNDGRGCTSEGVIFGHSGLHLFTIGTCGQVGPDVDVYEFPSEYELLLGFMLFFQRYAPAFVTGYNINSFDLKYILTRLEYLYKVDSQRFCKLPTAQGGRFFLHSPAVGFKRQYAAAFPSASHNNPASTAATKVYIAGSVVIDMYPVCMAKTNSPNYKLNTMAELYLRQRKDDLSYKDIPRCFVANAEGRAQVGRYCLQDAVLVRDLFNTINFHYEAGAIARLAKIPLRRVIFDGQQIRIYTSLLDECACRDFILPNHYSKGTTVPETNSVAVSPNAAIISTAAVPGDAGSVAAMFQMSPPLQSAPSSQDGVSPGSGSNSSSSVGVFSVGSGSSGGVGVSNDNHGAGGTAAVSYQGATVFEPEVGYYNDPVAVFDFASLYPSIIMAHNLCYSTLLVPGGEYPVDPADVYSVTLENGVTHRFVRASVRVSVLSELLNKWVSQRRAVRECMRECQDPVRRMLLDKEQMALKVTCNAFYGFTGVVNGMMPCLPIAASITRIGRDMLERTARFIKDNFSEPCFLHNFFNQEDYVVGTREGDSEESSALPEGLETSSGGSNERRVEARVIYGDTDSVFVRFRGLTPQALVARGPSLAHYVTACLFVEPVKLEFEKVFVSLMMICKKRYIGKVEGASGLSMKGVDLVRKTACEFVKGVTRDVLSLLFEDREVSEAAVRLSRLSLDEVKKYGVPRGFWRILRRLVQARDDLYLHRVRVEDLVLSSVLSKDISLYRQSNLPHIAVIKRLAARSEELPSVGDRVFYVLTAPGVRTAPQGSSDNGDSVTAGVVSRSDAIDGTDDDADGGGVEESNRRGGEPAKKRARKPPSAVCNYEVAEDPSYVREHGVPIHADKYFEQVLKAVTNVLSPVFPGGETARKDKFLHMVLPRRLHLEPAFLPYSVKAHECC
Procedure: (§1) The HCMV polymerase assay is performed using a scintillation proximity assay (SPA) as described in several references, such as N. D. Cook, et al., Pharmaceutical Manufacturing International, pages 49-53 (1992); K. Takeuchi, Laboratory Practice, September issue (1992); U.S. Pat. No. 4,568,649 (1986); which are incorporated by reference herein. Reactions are performed in 96-well plates. The assay is conducted in 100 μl volume with 5.4 mM HEPES (pH 7.5), 11.7 mM KCl, 4.5 mM MgCl2, 0.36 mg/ml BSA, and 90 nM ^3H-dTTP. Assays are run with and without CHAPS, (3-[(3-Cholamidopropyl)-dimethylammonio]-1-propane-sulfonate) at a final concentration of 2 mM. HCMV polymerase is diluted in enzyme dilution buffer containing 50% glycerol, 250 mM NaCl, 10 mM HEPES (pH 7.5), 100 μg/ml BSA, and 0.01% sodium azide. The HCMV polymerase, which is expressed in recombinant baculovirus-infected SF-9 cells and purified according to literature procedures, is added at 10% (or 10 μl) of the final reaction volume, i.e., 100 μl. Compounds are diluted in 50% DMSO and 10 μl are added to each well. Control wells contain an equivalent concentration of DMSO. Unless noted otherwise, reactions are initiated via the addition of 6 nM biotinylated poly(dA)-oligo(dT) template/primer to reaction mixtures containing the enzyme, substrate, and compounds of interest. Plates are incubated in a 25° C. or 37° C. H2O bath and terminated via the addition of 40 μl/reaction of 0.5 M EDTA (pH 8) per well. Reactions are terminated within the time-frame during which substrate incorporation is linear and varied depending upon the enzyme and conditions used, i.e., 30 min. for HCMV polymerase. Ten μl of streptavidin-SPA beads (20 mg/ml in PBS/10% glycerol) are added following termination of the reaction. Plates are incubated 10 min. at 37° C., then equilibrated to room temperature, and counted on a Packard Topcount. Linear regressions are performed and IC50's are calculated using computer software.
A modified version of the above HCMV polymerase assay is performed as described above, but with the following changes: Compounds are diluted in 100% DMSO until final dilution into assay buffer. In the previous assay, compounds are diluted in 50% DMSO. 4.5 mM dithiotherotol (DTT) is added to the polymerase buffer.

HSV Polymerase = HSV Polymerase (Human herpesvirus 1, UniProt P04293); experiment: HSV polymerase assay; assay type: biochemical
HSV Polymerase, sequence (P04293 whole entry): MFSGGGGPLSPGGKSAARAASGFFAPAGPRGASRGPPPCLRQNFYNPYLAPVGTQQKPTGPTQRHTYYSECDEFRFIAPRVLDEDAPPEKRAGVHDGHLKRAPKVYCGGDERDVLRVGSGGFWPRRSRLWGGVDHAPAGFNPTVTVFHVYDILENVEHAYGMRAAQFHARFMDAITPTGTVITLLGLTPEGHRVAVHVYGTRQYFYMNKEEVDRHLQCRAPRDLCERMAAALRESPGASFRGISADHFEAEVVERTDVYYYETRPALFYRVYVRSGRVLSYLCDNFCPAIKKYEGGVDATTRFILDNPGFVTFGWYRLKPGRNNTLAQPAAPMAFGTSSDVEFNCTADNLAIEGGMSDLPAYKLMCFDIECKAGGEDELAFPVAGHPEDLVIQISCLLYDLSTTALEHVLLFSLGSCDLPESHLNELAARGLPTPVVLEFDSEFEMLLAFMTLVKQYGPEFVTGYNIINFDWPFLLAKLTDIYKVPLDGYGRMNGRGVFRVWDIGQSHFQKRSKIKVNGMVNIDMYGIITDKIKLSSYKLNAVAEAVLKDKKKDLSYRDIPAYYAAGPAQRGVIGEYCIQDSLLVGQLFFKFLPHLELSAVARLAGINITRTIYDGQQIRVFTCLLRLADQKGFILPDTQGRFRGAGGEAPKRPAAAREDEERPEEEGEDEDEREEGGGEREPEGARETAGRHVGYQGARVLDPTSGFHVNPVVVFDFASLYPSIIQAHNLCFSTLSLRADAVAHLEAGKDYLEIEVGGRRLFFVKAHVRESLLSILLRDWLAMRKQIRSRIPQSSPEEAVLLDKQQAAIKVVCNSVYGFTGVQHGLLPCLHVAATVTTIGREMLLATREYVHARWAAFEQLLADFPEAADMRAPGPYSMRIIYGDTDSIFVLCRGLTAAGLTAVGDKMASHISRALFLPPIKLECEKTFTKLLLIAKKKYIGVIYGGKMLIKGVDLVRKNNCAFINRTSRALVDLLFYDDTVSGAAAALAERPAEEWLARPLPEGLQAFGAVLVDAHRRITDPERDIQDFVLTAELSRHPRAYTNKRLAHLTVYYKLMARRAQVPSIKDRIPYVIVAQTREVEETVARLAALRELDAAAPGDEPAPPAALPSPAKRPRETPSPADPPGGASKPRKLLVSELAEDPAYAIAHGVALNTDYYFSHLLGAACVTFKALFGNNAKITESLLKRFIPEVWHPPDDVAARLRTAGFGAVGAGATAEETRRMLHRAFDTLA
Procedure: [Worded in the source for another target; used here, by the source, with some conditions changed.] as §1, with “software. […]” for “software.”

VZV Polymerase = VZV Polymerase (Varicella-zoster virus, UniProt P09252); experiment: VZV polymerase assay; assay type: biochemical
VZV Polymerase, sequence (P09252 whole entry): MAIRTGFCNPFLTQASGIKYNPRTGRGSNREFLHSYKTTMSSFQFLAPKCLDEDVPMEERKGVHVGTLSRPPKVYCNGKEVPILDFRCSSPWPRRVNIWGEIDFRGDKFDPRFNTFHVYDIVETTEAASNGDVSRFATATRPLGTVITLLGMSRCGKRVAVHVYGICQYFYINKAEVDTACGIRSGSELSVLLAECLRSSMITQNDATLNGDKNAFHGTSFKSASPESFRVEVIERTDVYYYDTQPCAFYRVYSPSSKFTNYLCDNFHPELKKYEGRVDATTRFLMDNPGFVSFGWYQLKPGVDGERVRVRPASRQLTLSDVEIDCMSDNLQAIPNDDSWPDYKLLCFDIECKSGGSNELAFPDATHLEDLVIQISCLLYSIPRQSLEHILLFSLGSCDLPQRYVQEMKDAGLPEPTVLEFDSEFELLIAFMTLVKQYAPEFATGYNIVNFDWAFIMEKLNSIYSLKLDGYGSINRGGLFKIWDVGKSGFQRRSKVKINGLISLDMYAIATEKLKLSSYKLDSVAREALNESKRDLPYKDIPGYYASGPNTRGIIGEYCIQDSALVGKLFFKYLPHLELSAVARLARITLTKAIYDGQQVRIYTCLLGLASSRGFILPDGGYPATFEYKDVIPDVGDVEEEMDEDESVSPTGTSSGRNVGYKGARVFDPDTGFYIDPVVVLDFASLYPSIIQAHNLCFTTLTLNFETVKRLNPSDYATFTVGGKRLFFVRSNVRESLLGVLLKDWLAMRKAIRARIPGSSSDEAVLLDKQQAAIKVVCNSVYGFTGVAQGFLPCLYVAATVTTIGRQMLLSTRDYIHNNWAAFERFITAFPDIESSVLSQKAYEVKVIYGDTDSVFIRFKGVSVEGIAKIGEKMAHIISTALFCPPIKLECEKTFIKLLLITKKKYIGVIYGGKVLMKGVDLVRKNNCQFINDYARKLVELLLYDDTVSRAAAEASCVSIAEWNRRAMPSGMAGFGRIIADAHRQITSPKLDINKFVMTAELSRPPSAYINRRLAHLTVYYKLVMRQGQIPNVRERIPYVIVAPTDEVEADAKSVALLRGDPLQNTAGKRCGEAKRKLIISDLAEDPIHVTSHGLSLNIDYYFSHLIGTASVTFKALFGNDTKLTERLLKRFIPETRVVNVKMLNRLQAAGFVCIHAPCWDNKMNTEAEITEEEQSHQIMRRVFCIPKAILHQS
Procedure: [Worded in the source for another target; used here, by the source, with some conditions changed.] as §1, with “software. […]” for “software.”

IC50 (CMV Polymerase)	melting point	IC50 (HSV Polymerase)	IC50 (VZV Polymerase)	Structure (SMILES)
1200 nM	211 to 213 °C			O=C(NCc1ccc(Cl)cc1)c1cn2c(CO)cc3cccc(c1=O)c32 [Example 1, N-(4-Chlorobenzyl)-2-(hydroxymethyl)-6-oxo-6H-pyrrolo[3,2,1-ij]quinoline-5-carboxamide]
210 nM	196 to 198 °C	200 nM	160 nM	O=C(NCc1ccc(Cl)cc1)c1cn2c(CO)cc3cc(CC4CCOCC4)cc(c1=O)c32 [Example 2, N-(4-Chlorobenzyl)-2-(hydroxymethyl)-6-oxo-8-(tetrahydro-2H-pyran-4-ylmethyl)-6H-pyrrolo[3,2,1-ij]quinoline-5-carboxamide]
530 nM	210 to 212 °C	510 nM	250 nM	O=C(NCc1ccc(Cl)cc1)c1cn2c(CO)cc3cc(CN4CCOCC4)cc(c1=O)c32 [Example 3, N-(4-Chlorobenzyl)-2-(hydroxymethyl)-8-(4-morpholinylmethyl)-6-oxo-6H-pyrrolo[3,2,1-ij]quinoline-5-carboxamide]
2430 nM				CCN(CC)CCc1cc2cc(CN3CCOCC3)cc3c(=O)c(C(=O)NCc4ccc(Cl)cc4)cn1c23 [Example 6, N-(4-Chlorobenzyl)-2-[2-(diethylamino)ethyl]-8-(4-morpholinylmethyl)-6-oxo-6H-pyrrolo[3,2,1-ij]quinoline-5-carboxamide]
1760 nM				CN1CCN(CCc2cc3cc(CN4CCOCC4)cc4c(=O)c(C(=O)NCc5ccc(Cl)cc5)cn2c34)CC1 [Example 7, N-(4-Chlorobenzyl)-2-[2-(4-methylpiperazin-1-yl)ethyl]-8-(morpholin-4-ylmethyl)-6-oxo-6H-pyrrolo[3,2,1-ij]quinoline-5-carboxamide]
1920 nM				CCC1CCCCN1CCc1cc2cc(CN3CCOCC3)cc3c(=O)c(C(=O)NCc4ccc(Cl)cc4)cn1c23 (stereo not shown) [Example 8, N-(4-Chlorobenzyl)-2-[2-(2-ethylpiperidin-1-yl)ethyl]-8-(morpholin-4-ylmethyl)-6-oxo-6H-pyrrolo[3,2,1-ij]quinoline-5-carboxamide]
3440 nM				CN1CCN(CCCc2cc3cc(CN4CCOCC4)cc4c(=O)c(C(=O)NCc5ccc(Cl)cc5)cn2c34)CC1 [Example 9, N-(4-Chlorobenzyl)-2-[3-(4-methylpiperazin-1-yl)propyl]-8-(morpholin-4-ylmethyl)-6-oxo-6H-pyrrolo[3,2,1-ij]quinoline-5-carboxamide]
2300 nM				O=C(NCc1ccc(Cl)cc1)c1cn2c(CCN3CCCCC3)cc3cc(CN4CCOCC4)cc(c1=O)c32 [Example 10, N-(4-Chlorobenzyl)-8-(morpholin-4-ylmethyl)-6-oxo-2-(2-piperidin-1-ylethyl)-6H-pyrrolo[3,2,1-ij]quinoline-5-carboxamide]
3570 nM				O=C(NCc1ccc(Cl)cc1)c1cn2c(CCCN3CCOCC3)cc3cc(CN4CCOCC4)cc(c1=O)c32 [Example 11, N-(4-Chlorobenzyl)-8-(morpholin-4-ylmethyl)-2-(3-morpholin-4-ylpropyl)-6-oxo-6H-pyrrolo[3,2,1-ij]quinoline-5-carboxamide]
360 nM	236 to 239 °C			O=C(NCc1ccc(Cl)cc1)c1cn2c(CN3CCS(=O)(=O)CC3)cc3cc(CN4CCOCC4)cc(c1=O)c32 [Example 12, N-(4-Chlorobenzyl)-2-[(1,1-dioxido-4-thiomorpholinyl)methyl]-8-(4-morpholinylmethyl)-6-oxo-6H-pyrrolo[3,2,1-ij]quinoline-5-carboxamide]
840 nM	244 to 246 °C			O=C(NCc1ccc(Cl)cc1)c1cn2c(CN3CCS(=O)(=O)CC3)c(I)c3cc(CN4CCOCC4)cc(c1=O)c32 [Example 13, N-(4-Chlorobenzyl)-2-[(1,1-dioxido-4-thiomorpholinyl)methyl]-1-iodo-8-(4-morpholinylmethyl)-6-oxo-6H-pyrrolo[3,2,1-ij]quinoline-5-carboxamide]
320 nM	171 to 174 °C			O=C(NCc1ccc(Cl)cc1)c1cn2c(CCCO)cc3cc(CN4CCOCC4)cc(c1=O)c32 [Example 14, N-(4-Chlorobenzyl)-2-(3-hydroxypropyl)-8-(4-morpholinylmethyl)-6-oxo-6H-pyrrolo[3,2,1-ij]quinoline-5-carboxamide]
410 nM	250 to 252 °C			NC(=O)NCc1cc2cc(CN3CCOCC3)cc3c(=O)c(C(=O)NCc4ccc(Cl)cc4)cn1c23 [Example 15, 2-{[(Aminocarbonyl)amino]methyl}-N-(4-chlorobenzyl)-8-(4-morpholinylmethyl)-6-oxo-6H-pyrrolo[3,2,1-ij]quinoline-5-carboxamide]
260 nM	155 to 159 °C			C[C@@H](O)c1cc2cc(CN3CCOCC3)cc3c(=O)c(C(=O)NCc4ccc(Cl)cc4)cn1c23 [Example 16, N-(4-Chlorobenzyl)-2-[(IR)-1-hydroxyethyl]-8-(4-morpholinylmethyl)-6-oxo-6H-pyrrolo[3,2,1-ij]quinoline-5-carboxamide]
540 nM	157 to 159 °C			COCc1cc2cc(CN3CCOCC3)cc3c(=O)c(C(=O)NCc4ccc(Cl)cc4)cn1c23 [Example 17, N-(4-Chlorobenzyl)-2-(methoxymethyl)-8-(4-morpholinylmethyl)-6-oxo-6H-pyrrolo[3,2,1-ij]quinoline-5-carboxamide]
580 nM	177 to 178 °C			CCSCc1cc2cc(CN3CCOCC3)cc3c(=O)c(C(=O)NCc4ccc(Cl)cc4)cn1c23 [Example 18, N-(4-Chlorobenzyl)-2-[(ethylsulfanyl)methyl]-8-(4-morpholinylmethyl)-6-oxo-6H-pyrrolo[3,2,1-ij]quinoline-5-carboxamide]
680 nM	173 to 175 °C			O=C(NCc1ccc(Cl)cc1)c1cn2c(CSc3ccccc3)cc3cc(CN4CCOCC4)cc(c1=O)c32 [Example 19, N-(4-Chlorobenzyl)-8-(4-morpholinylmethyl)-6-oxo-2-[(phenylsulfanyl)methyl]-6H-pyrrolo[3,2,1-ij]quinoline-5-carboxamide]
490 nM				CNCc1cc2cc(CN3CCOCC3)cc3c(=O)c(C(=O)NCc4ccc(Cl)cc4)cn1c23 [Example 20, N-(4-Chlorobenzyl)-2-[(methylamino)methyl]-8-(4-morpholinylmethyl)-6-oxo-6H-pyrrolo[3,2,1-ij]quinoline-5-carboxamide]
620 nM				CN(C)Cc1cc2cc(CN3CCOCC3)cc3c(=O)c(C(=O)NCc4ccc(Cl)cc4)cn1c23 [Example 21, N-(4-Chlorobenzyl)-2-[(dimethylamino)methyl]-8-(4-morpholinylmethyl)-6-oxo-6H-pyrrolo[3,2,1-ij]quinoline-5-carboxamide]
1200 nM	190 to 192 °C			O=C(NCc1ccc(Cl)cc1)c1cn2c(CCO)cc3cccc(c1=O)c32 [Example 22, N-(4-Chlorobenzyl)-2-(2-hydroxyethyl)-6-oxo-6H-pyrrolo[3,2,1-ij]quinoline-5-carboxamide]
130 nM	204 to 206 °C	140 nM	100 nM	O=C(NCc1ccc(Cl)cc1)c1cn2c(CCO)cc3cc(CC4CCOCC4)cc(c1=O)c32 [Example 23, N-(4-Chlorobenzyl)-2-(2-hydroxyethyl)-6-oxo-8-(tetrahydro-2H-pyran-4-ylmethyl)-6H-pyrrolo[3,2,1-ij]quinoline-5-carboxamide]
